Measured values reported in ChEMBL document CHEMBL5608170, “An insight into sustainable and green chemistry approaches for the synthesis of quinoline derivatives as anticancer agents” (Eur J Med Chem, 2024).
Values after ≈ are worked out from the molar mass of the structure shown. *1 amine or outer side, *2 acyl side, *3 side chain or, on linkers, in order; H or OH if unused. Where a SMILES comes first, the peptide text is derived from it. Bridges are numbered along the chain shown (N, C = ends). Roman numbers before positions name the chains, in order. [ ]: non-standard residue; d: D form. Actinocin(1to9) = Cc1c2oc3c(C)ccc(C(=O)[*:2])c3nc-2c(C(=O)[*:1])c(N)c1=O; NMeV = CN[C@H](C(=O)O)C(C)C; Sar = CNCC(=O)O

Tests used:
[1] = system: B16-F10; assay: Cytotoxicity against mouse B16-F10 cells assessed as reduction in cell viability incubated for 48 hrs by MTT assay; type: functional, cell-based; conditions: B16-F10, 48 h
[2] = system: PC-3; assay: Cytotoxicity against human PC-3 cells assessed as reduction in cell growth measured for 48 hrs by MTT assay; type: functional, cell-based; conditions: PC-3, 48 h
[3] = system: DU-145; assay: Cytotoxicity against human DU-145 cells assessed as reduction in cell growth measured for 48 hrs by MTT assay; type: functional, cell-based; conditions: DU-145, 48 h
[4] = system: HeLa; assay: Growth inhibition of human HeLa cells; type: functional
[5] = system: WiDr; assay: Growth inhibition of human WiDr cells; type: functional
[6] = system: A549; assay: Growth inhibition of human A549 cells; type: functional
[7] = system: HBL-100; assay: Growth inhibition of human HBL-100 cells; type: functional
[8] = system: T47D; assay: Growth inhibition of human T47D cells; type: functional
[9] = system: SW1573; assay: Growth inhibition of human SW1573 cells; type: functional
[10] = system: MDA-MB-231; assay: Cytotoxicity against human MDA-MB-231 cells assessed as reduction in cell growth measured for 48 hrs by MTT assay; type: functional, cell-based; conditions: MDA-MB-231, 48 h
[11] = system: A549; assay: Cytotoxicity against human A549 cells assessed as reduction in cell viability incubated for 24 hrs by MTT assay; type: functional, cell-based; conditions: A549, 24 h
[12] = system: HepG2; assay: Cytotoxicity against human HepG2 cells assessed as reduction in cell viability incubated for 24 hrs by MTT assay; type: functional, cell-based; conditions: HepG2, 24 h
[13] = system: HCT-116; assay: Cytotoxicity against human HCT-116 cells assessed as reduction in cell viability incubated for 24 hrs by MTT assay; type: functional, cell-based; conditions: HCT-116, 24 h
[14] = system: MCF7; assay: Cytotoxicity against human MCF7 cells assessed as reduction in cell viability incubated for 24 hrs by MTT assay; type: functional, cell-based; conditions: MCF7, 24 h
[15] = system: MDA-MB-231; assay: Cytotoxicity against human MDA-MB-231 cells assessed as reduction in cell viability incubated for 48 hrs by MTT assay; type: functional, cell-based; conditions: MDA-MB-231, 48 h
[16] = system: MCF7; assay: Cytotoxicity against human MCF7 cells assessed as reduction in cell growth by MTT assay; type: functional, cell-based
[17] = system: A549; assay: Cytotoxicity against human A549 cells assessed as reduction in cell growth by MTT assay; type: functional, cell-based
[18] = system: HepG2; assay: Cytotoxicity against human HepG2 cells assessed as reduction in cell growth by MTT assay; type: functional, cell-based
[19] = system: HeLa; assay: Growth inhibition of human HeLa cells by SRB assay; type: functional
[20] = system: UO-31; assay: Growth inhibition of human UO-31 cells at 10 uM by SRB assay relative to control; type: functional; conditions: read-out: GI
[21] = system: A498; assay: Growth inhibition of human A498 cells at 10 uM by SRB assay relative to control; type: functional; conditions: read-out: GI
[22] = system: HOP-92; assay: Growth inhibition of human HOP-92 cells at 10 uM by SRB assay relative to control; type: functional; conditions: read-out: GI
[23] = system: HOP-62; assay: Growth inhibition of human HOP-62 cells at 10 uM by SRB assay relative to control; type: functional; conditions: read-out: GI
[24] = system: CCRF-CEM; assay: Growth inhibition of human CCRF-CEM cells at 10 uM by SRB assay relative to control; type: functional; conditions: read-out: GI
[25] = system: Hs-578T; assay: Growth inhibition of human Hs-578T cells at 10 uM by SRB assay relative to control; type: functional; conditions: read-out: GI
[26] = system: TK-10; assay: Growth inhibition of human TK-10 cells at 10 uM by SRB assay relative to control; type: functional; conditions: read-out: GI
[27] = system: CAKI-1; assay: Growth inhibition of human CAKI-1 cells at 10 uM by SRB assay relative to control; type: functional; conditions: read-out: GI
[28] = system: HCT 116 TP53(-/-); assay: Antiproliferative activity against human HCT116-p53-null cells assessed as reduction in cell viability by MTT assay; type: functional, cell-based

Q: `Cc1c2oc3c(C)ccc(C(=O)N[C@@H]4C(=O)N[C@H](C(C)C)C(=O)N5CCC[C@H]5C(=O)N(C)CC(=O)N(C)[C@@H](C(C)C)C(=O)O[C@@H]4C)c3nc-2c(C(=O)N[C@@H]2C(=O)N[C@H](C(C)C)C(=O)N3CCC[C@H]3C(=O)N(C)CC(=O)N(C)[C@@H](C(C)C)C(=O)O[C@@H]2C)c(N)c1=O` [DACTINOMYCIN] (I: T[dV]P[Sar][NMeV] / II: T[dV]P[Sar][NMeV]; ester I:1-I:C, II:1-II:C; linker I:N-II:N via Actinocin(1to9)) was tested. Which IC50 [1] did it give?
A: 13.4 µM

Q: How did the IC50 [2] turn out when `O=C1N(c2ccccc2S)c2[nH]c(=O)[nH]c(=O)c2C12c1ccccc1Nc1c2[nH]c(=O)[nH]c1=O` (stereo unspecified) was run?
A: 18.4 µM

Q: And the IC50 [3]?
A: 17.7 µM

Q: `COc1cc2nccc(Oc3ccc(NC(=O)C4(C(=O)Nc5ccc(F)cc5)CC4)cc3)c2cc1OC` [CABOZANTINIB] was tested. Which GI50 [4] did it give?
A: 11 µM

Q: And the GI50 [5]?
A: 14 µM

Q: And the GI50 [6]?
A: 9.5 µM

Q: And the GI50 [7]?
A: 17 µM

Q: And the GI50 [8]?
A: 16 µM

Q: And the GI50 [9]?
A: 6 µM

Q: With `O=C1N(c2ccc([N+](=O)[O-])cc2[N+](=O)[O-])c2[nH]c(=O)[nH]c(=O)c2C12c1ccccc1Nc1c2[nH]c(=O)[nH]c1=O` (stereo unspecified) as the compound, how does the IC50 [10] read?
A: 10.6 µM

Q: How did the IC50 [11] turn out when `N#CC1=C(N)Oc2c(cc(Cl)c3cccnc23)C1c1ccc(Cl)cc1Cl` (stereo unspecified) was run?
A: 1.79 µg/mL (≈ 4.45 µM)

Q: And the IC50 [12]?
A: 0.87 µg/mL (≈ 2.16 µM)

Q: What about the IC50 [13] of the same compound?
A: 3.01 µg/mL (≈ 7.48 µM)

Q: And the IC50 [14]?
A: 1.18 µg/mL (≈ 2.93 µM)

Q: How did the IC50 [15] turn out when `COC1=C(N)C(=O)c2nc(-c3nc(C(=O)O)c(C)c(-c4ccc(OC)c(OC)c4O)c3N)ccc2C1=O` [STREPTONIGRIN] was run?
A: 30.5 µM

Q: How did the IC50 [12] turn out when `Cc1ccc2ccc3c(c2n1)OC(N)=C(C#N)C3c1cccc(Cl)c1Cl` (stereo unspecified) was run?
A: 1.83 µg/mL (≈ 4.79 µM)

Q: What about the IC50 [14] of the same compound?
A: 1.24 µg/mL (≈ 3.24 µM)

Q: How did the IC50 [2] turn out when `O=C1N(c2ccc(Cl)cc2)c2[nH]c(=O)[nH]c(=O)c2C12c1ccccc1Nc1c2[nH]c(=O)[nH]c1=O` (stereo unspecified) was run?
A: 19.9 µM

Q: What about the IC50 [3] of the same compound?
A: 16.5 µM

Q: With `COc1cc2nccc(Oc3ccc(NC(=O)Nc4cc(C)on4)c(Cl)c3)c2cc1OC` [TIVOZANIB] as the compound, how does the IC50 [1] read?
A: 18.8 µM

Q: Which results are given for `N#CC1C(=S)N=C2C(=C1c1ccc(F)cc1)CCC/C2=C\c1ccc(F)cc1` (stereo unspecified)?
A: IC50 [16]: 13.1 µg/mL (≈ 33.7 µM); IC50 [17]: 28.4 µg/mL (≈ 72.9 µM); IC50 [18]: 11.2 µg/mL (≈ 28.8 µM)

Q: For `CC(=O)NC1=NN(C(C)=O)C(c2cc3cc(Cl)ccc3n3nnnc23)S1` (stereo unspecified), which GI50 [19] is on record?
A: < 0.1 µM

Q: What does the source list for `Cc1cc(=O)n(C(=O)Nc2ccc(F)c(Cl)c2)c2cc(O)ccc12`?
A: inhibition of growth at 10 µM [20]: 30%; inhibition of growth at 10 µM [21]: 20.5%; inhibition of growth at 10 µM [22]: 27.4%; inhibition of growth at 10 µM [23]: 17.6%; inhibition of growth at 10 µM [24]: 58.6%

Q: `N#CC1=C(N)Oc2c(ccc3cccnc23)C1c1ccc(Br)cc1` (stereo unspecified) was tested. Which IC50 [11] did it give?
A: 38 µg/mL (≈ 100 µM)

Q: What about the IC50 [12] of the same compound?
A: 1.41 µg/mL (≈ 3.73 µM)

Q: What about the IC50 [13] of the same compound?
A: 1.3 µg/mL (≈ 3.44 µM)

Q: And the IC50 [14]?
A: 1.17 µg/mL (≈ 3.09 µM)

Q: How did the inhibition of growth at 10 µM [25] turn out when `Cc1cc(=O)n(C(=O)Nc2ccccc2)c2cc(O)ccc12` was run?
A: 11.5%

Q: And the inhibition of growth at 10 µM [20]?
A: 23.1%

Q: What about the inhibition of growth at 10 µM [26] of the same compound?
A: 82.9%

Q: What about the inhibition of growth at 10 µM [22] of the same compound?
A: 16%

Q: What about the inhibition of growth at 10 µM [27] of the same compound?
A: 12.4%

Q: What does the source list for `Cc1ccc2ccc3c(c2n1)OC(N)=C(C#N)C3c1cccc(Cl)c1` (stereo unspecified)?
A: IC50 [12]: 3.01 µg/mL (≈ 8.65 µM); IC50 [14]: 5.79 µg/mL (≈ 16.6 µM)

Q: For `O=[N+]([O-])c1c(Nc2ccc(F)c(Cl)c2)nc2ccccc2c1Nc1ccc(F)c(Cl)c1`, which IC50 [28] is on record?
A: 5.1 µM

Q: `N#CC1=C(N)Oc2c(cc(Cl)c3cccnc23)C1c1ccc(Br)cc1` (stereo unspecified) was tested. Which IC50 [11] did it give?
A: 3.1 µg/mL (≈ 7.51 µM)

Q: What about the IC50 [12] of the same compound?
A: 1.23 µg/mL (≈ 2.98 µM)

Q: What about the IC50 [13] of the same compound?
A: 5.81 µg/mL (≈ 14.1 µM)

Q: What about the IC50 [14] of the same compound?
A: 0.99 µg/mL (≈ 2.4 µM)

Q: Which results are given for `N#CC1=C(N)Oc2c(cc(Cl)c3cccnc23)C1c1cccc(Cl)c1Cl` (stereo unspecified)?
A: IC50 [11]: 15.6 µg/mL (≈ 38.7 µM); IC50 [12]: 1.48 µg/mL (≈ 3.68 µM); IC50 [13]: 7.94 µg/mL (≈ 19.7 µM); IC50 [14]: 2.47 µg/mL (≈ 6.13 µM)

Q: For `CCOc1cc2ncc(C#N)c(Nc3ccc(OCc4ccccn4)c(Cl)c3)c2cc1NC(=O)/C=C/CN(C)C` [NERATINIB], which GI50 [7] is on record?
A: 1.6 µM

Q: Which IC50 [15] does the source give for `COc1ncccc1-c1cc(-c2cn(Cc3ccccc3F)nn2)cc2ccc(C)nc12` here?
A: 19.8 µM
